Assays:
[1] = target: FLNA pentapeptide of SEQ ID NO: 1 (Bn-VAKGL) (Homo sapiens, UniProt P21333); test: FITC-NLX-based FLNA screening assay (inhibition of FITC-naloxone binding to Bn-VAKGL on streptavidin plates); settings: for inhibition at 0.01 µM / inhibition at 0.1 µM / inhibition at 1 µM / Percent Binding Inhibition: 10 nM FITC-NLX; for inhibition at 0.01 µM / inhibition at 0.1 µM / inhibition at 1 µM: read-out: Percent Binding Inhibition; for Percent inhibition of FITC-NLX binding (preliminary study): 100 nM frozen-stored FITC-NLX, average of two runs
mu opiate receptor (MOR) = test: MOR agonist activity using [35S]GTPγS binding assay in striatal membranes; type: biochemical; settings: for % DAMGO (0.1 μM) / % DAMGO (1 μM): relative to DAMGO; for % DAMGO + BFNA: 1 μM compound + β-FNA, relative to DAMGO + BFNA
Description: To assess the mu opiate receptor (MOR) agonist activity of positive compounds from the FLNA screening, compounds were tested in a [^35S]GTPγS binding assay using striatal membranes. […] This assay measures a functional consequence of receptor occupancy at one of the earliest receptor-mediated events. The assay permits traditional pharmacological parameters of potency, efficacy and antagonist affinity, with the advantage that agonist measures are not subjected to amplification or other modulation that may occur when analyzing parameters further downstream of the receptor.
Thus, striatal tissue was homogenized in 10 volumes of ice cold 25 mM HEPES buffer, pH 7.4, which contained 1 mM EGTA, 100 mM sucrose, 50 μg/ml leupeptin, 0.04 mM PMSF, 2 μg/ml soybean trypsin inhibitor and 0.2% 2-mercaptoethanol. The homogenates were centrifuged at 800×g for 5 minutes and the supernatants were centrifuged at 49,000×g for 20 minutes. The resulting pellets were suspended in 10 volume of reaction buffer, which contained 25 mM HEPES, pH 7.5, 100 mM NaCl, 50 μg/ml leupeptin, 2 μg/ml soybean trypsin inhibitor, 0.04 mM PMSF and 0.02% […].
The resultant striatal membrane preparation (200 μg) was admixed and maintained (incubated) at 30° C. for 5 minutes in reaction buffer as above that additionally contained 1 mM MgCl2 and 0.5 nM [^35S]GTPγS (0.1 μCi/assay, PerkinElmer Life and Analytical Sciences) in a total volume of 250 μl and continued for 5 minutes in the absence or presence of 0.1-10 μM of an assayed compound of interest. The reaction was terminated by dilution with 750 μl of ice-cold reaction buffer that contained 20 mM MgCl2 and 1 mM EGTA and immediate centrifugation at 16,000×g for 5 minutes.
The resulting pellet was solubilized by sonicating for 10 seconds in 0.5 ml of immunoprecipitation buffer containing 0.5% digitonin, 0.2% sodium cholate and 0.5% NP-40. Normal rabbit serum (1 μl) was added to 1 ml of lysate and incubated at 25° C. for 30 minutes. Nonspecific immune complexes were removed by incubation with 25 μl of protein A/G-conjugated agarose beads at 25° C. for 30 minutes followed by centrifugation at 5,000×g at 4° C. for 5 minutes. The supernatant was divided and separately incubated at 25° C. for 30 minutes with antibodies raised against Gαo proteins (1:1,000 dilutions).
The immunocomplexes so formed were collected by incubation at 25° C. for 30 minutes with 40 μl of agarose-conjugated protein A/G beads and centrifugation at 5,000×g at 4° C. for 5 minutes. The pellet was washed and suspended in buffer containing 50 mM Tris-HCl, pH 8.0, and 1% NP-40. The radioactivity in the suspension was determined by liquid scintillation spectrometry.

[2] = Series C-2, 0.1 μM compound, [35S]GTPγS binding to Gαo, striatal membranes
[3] = Series C-2, 1 μM compound + 1 μM β-FNA
[4] = Series C-2, 1 μM compound, [35S]GTPγS binding to Gαo, striatal membranes

`NS(=O)(=O)c1ccc(S(=O)(=O)N2CCC3(CC2)NCCO3)cc1` [Compound C0034-3] gave an inhibition at 0.01 µM ([1]; FLNA-binding compound 0.01 μM) of 29.6%, an inhibition at 0.1 µM ([1]; FLNA-binding compound 0.1 μM) of 38.3% and an inhibition at 1 µM ([1]; FLNA-binding compound 1 μM) of 44.8%.
In the case of `COc1ccc2c3c1O[C@H]1C(=O)CC[C@@]4(O)[C@@H](C2)N(C)CC[C@]314` [oxycodone, reference compound], the “Inhibition of 10 nM FITC-conjugated NLX binding to biotinylated FLNA pentapeptide (FIG. 28)” value ([1]; 10 μM) is reported as “minimal binding inhibition”.
For `CC(=O)c1ccc(S(=O)(=O)N2CCC3(CC2)NC(=O)CN3Cc2ccccc2)cc1` [Compound C0085M], the “% DAMGO (0.1 μM)” value (mu opiate receptor (MOR); Series C-1, 0.1 μM compound) was 105.5%, the “% DAMGO + BFNA” value (mu opiate receptor (MOR); Series C-1) was 112.6% and the “% DAMGO (1 μM)” value (mu opiate receptor (MOR); Series C-1, 1 μM compound) was 78.4%.
For `O=C(c1ccc([N+](=O)[O-])cc1)N1CCC2(CC1)OCCN2S(=O)(=O)c1ccc([N+](=O)[O-])cc1` [Compound C0033], the “% DAMGO (0.1 μM)” value (mu opiate receptor (MOR); Series C-1, 0.1 μM compound) was 85.9%, the “Concentration of FLNA-Binding Compound as Agonist 0.1 μM” value (mu opiate receptor (MOR); Series C-1, 0.1 μM compound, [35S]GTPγS binding to Gαo, striatal membranes) was 134.5% and the “Concentration of FLNA-Binding Compound as Agonist 1 μM + BFNA” value (mu opiate receptor (MOR); Series C-1, 1 μM compound + 1 μM β-FNA) was 76.6%. For the same molecule, the “% DAMGO + BFNA” value (mu opiate receptor (MOR); Series C-1) was 235.0%, the “% DAMGO (1 μM)” value (mu opiate receptor (MOR); Series C-1, 1 μM compound) was 80.6% and the “Concentration of FLNA-Binding Compound as Agonist 1 μM” value (mu opiate receptor (MOR); Series C-1, 1 μM compound, [35S]GTPγS binding to Gαo, striatal membranes) was 186.4%.
In the case of `COc1ccc(OCC(O)CN2CCc3ccccc32)cc1` (stereo not shown) [Compound A0069], the “Percent Binding Inhibition” value ([1]; FLNA-binding compound 0.01 μM) is reported as 32.0%, the “Percent Binding Inhibition” value ([1]; FLNA-binding compound 0.1 μM) is reported as 40.4% and the “Percent Binding Inhibition” value ([1]; FLNA-binding compound 1 μM) is reported as 46.1%.
`C=CCN1CC[C@]23c4c5ccc(O)c4O[C@H]2C(=O)CC[C@]3(O)[C@H]1C5` [(+) NLX] was tested, and the “Percent inhibition of FITC-NLX binding (preliminary study)” value (from here on “Percent inhibition of FITC-NLX binding”) ([1]; compound 0.1 nM) was 22.7%, the “Percent inhibition of FITC-NLX binding” value ([1]; compound 1 nM) was 22.8% and the “Percent inhibition of FITC-NLX binding” value ([1]; compound 10 nM) was 23.1%. For the same molecule, the “Percent inhibition of FITC-NLX binding” value ([1]; compound 100 nM) was 22.8% and the “Percent inhibition of FITC-NLX binding” value ([1]; compound 1 µM) was 39.8%.
With `O=C1CC[C@@]2(O)[C@H]3Cc4ccc(O)c5c4[C@@]2(CCN3CC2CC2)[C@H]1O5` [NTX, naltrexone, reference compound] the “Inhibition of 10 nM FITC-conjugated NLX binding to biotinylated FLNA pentapeptide (FIG. 28)” value ([1]; 1 μM) was “inhibit well”.
Molecule `O=C1CNC2(CCN(S(=O)(=O)c3ccc(O)cc3)CC2)N1Cc1ccccc1` [Compound C0148M] has an inhibition at 0.01 µM ([1]; FLNA-binding compound 0.01 μM) of 46.2%, an inhibition at 0.1 µM ([1]; FLNA-binding compound 0.1 μM) of 52% and an inhibition at 1 µM ([1]; FLNA-binding compound 1 μM) of 57%.
For `O=C1CN(Cc2ccccc2)C2(CCN(C3CCCCC3)CC2)N1` [C0137M(P7)], the “% DAMGO (0.1 μM)” value (mu opiate receptor (MOR); Series C-2, 0.1 μM compound) was 95.6%, the “MOR agonist activity, percent [35S]GTPγS binding at the stated compound concentration” value (“MOR agonist activity, percent” for short) (mu opiate receptor (MOR); [2]) was 180.8% and the “MOR agonist activity, percent” value (mu opiate receptor (MOR); [3]) was 55.8%. For the same molecule, the “% DAMGO + BFNA” value (mu opiate receptor (MOR); Series C-2) was 115.1%, the “% DAMGO (1 μM)” value (mu opiate receptor (MOR); Series C-2, 1 μM compound) was 78.1% and the “MOR agonist activity, percent” value (mu opiate receptor (MOR); [4]) was 193.8%.
In the case of `COc1ccc(S(=O)(=O)N2CCC3(NCCO3)C3CCCCC32)cc1` (stereo not shown) [Compound C0144M-2], the “% DAMGO (0.1 μM)” value (mu opiate receptor (MOR); Series C-2, 0.1 μM compound) is reported as 108.3%, the “MOR agonist activity, percent” value (mu opiate receptor (MOR); [2]) is reported as 186.3% and the “MOR agonist activity, percent” value (mu opiate receptor (MOR); [3]) is reported as 125.9%. The “% DAMGO + BFNA” value (mu opiate receptor (MOR); Series C-2) was 137.9%, the “% DAMGO (1 μM)” value (mu opiate receptor (MOR); Series C-2, 1 μM compound) was 90.8% and the “MOR agonist activity, percent” value (mu opiate receptor (MOR); [4]) was 295.9%.

Source: patent US10363239B2, “Method for inhibiting growth of cancer cells” (Pain Therapeutics, Inc., priority 2013, dated 2019)
